Experimental data as given in BindingDB's records for doi:10.1016/j.bioorg.2016.04.005 (Comsats Institute of Information Technology, 2016).
pIC50: −log10 of the molar value.

Target: Urease subunit alpha (Sporosarcina pasteurii, UniProt P41020)
Assay: Urease Inhibition Assay
Details: 30 °C
Protocol: Reaction mixtures comprising one unit of urease enzyme (B. pasteurii) solution and 55 uL of buffers containing 100 mMol urea were incubated with 5 uL of test compounds (1 mMol concentration) at 30° C for 15 min in 96-well plates. Urease activity was determined by measuring ammonia production using the indophenol'smethod. Momentarily, 45 uL each of phenol reagent and 70 uL of alkali reagent were added to each well. The increasing absorbance at 630 nm was measured after 50 min, using a micro-plate reader (Molecular Devices, USA). All reactions were performed in triplicate in a final volume of 200 uL. The results (change in absorbance per min.) were processed by using the Soft-Max Pro s4.5.Software (Molecular Devices, USA).

Chain of Urease subunit alpha (P41020 as listed by the source): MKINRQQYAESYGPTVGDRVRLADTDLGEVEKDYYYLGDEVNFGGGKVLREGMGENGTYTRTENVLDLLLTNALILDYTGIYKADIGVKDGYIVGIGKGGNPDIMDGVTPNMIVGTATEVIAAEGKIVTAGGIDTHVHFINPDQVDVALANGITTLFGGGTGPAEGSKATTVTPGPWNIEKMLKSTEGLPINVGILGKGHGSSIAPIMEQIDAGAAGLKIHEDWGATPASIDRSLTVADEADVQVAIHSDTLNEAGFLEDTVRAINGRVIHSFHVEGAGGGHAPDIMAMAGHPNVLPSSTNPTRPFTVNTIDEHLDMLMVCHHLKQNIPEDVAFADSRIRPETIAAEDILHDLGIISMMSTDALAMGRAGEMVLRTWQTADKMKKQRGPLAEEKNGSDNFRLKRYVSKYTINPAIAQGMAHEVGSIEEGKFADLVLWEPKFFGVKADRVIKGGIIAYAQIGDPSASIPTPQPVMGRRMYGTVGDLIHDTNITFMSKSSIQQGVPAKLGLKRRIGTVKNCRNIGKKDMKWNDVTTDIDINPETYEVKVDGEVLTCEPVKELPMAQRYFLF

With `COc1cc(C(=O)c2c(O)c3ccccc3oc2=O)cc(OC)c1OC` [3-(3,4,5-Trimethoxybenzoyl)-(4-hydroxycoumarin) (9)] the pIC50 was 4.95.
For `CCCCCCCCCC(=O)c1c(O)c2ccccc2oc1=O` [3-Decanoyl-(4-hydroxycoumarin) (5)], the pIC50 was 4.89.
Work on `O=c1oc2ccccc2c(O)c1S(=O)(=O)c1cccc2ccccc12` [3-(1-Naphthosulfonyl)-(4-hydroxycoumarin) (16)] yielded a pIC50 of 4.16.
Compound `CS(=O)(=O)c1c(O)c2ccccc2oc1=O` [3-(Methanesulfonoyl)-(4-hydroxycoumarin) (11)] has a pIC50 of 4.53.
In the case of `CCCCCCCCCCCC(=O)c1c(O)c2ccccc2oc1=O` [3-Lauroyl-(4-hydroxycoumarin) (6)], the pIC50 was 4.77.
Compound `NC(N)=S` [thiocarbamide] has a pIC50 of 4.68.
In the case of `CCCCCCCCC(=O)c1c(O)c2ccccc2oc1=O` [3-Nonanoyl-(4-hydroxycoumarin) (4)], the pIC50 was 4.51.
